# According to ChEMBL document CHEMBL3044799, “Biological activity of the succinate dehydrogenase inhibitor fluopyram against Botrytis cinerea and fungal baseline sensitivity” (Pest Manag Sci, 2012):
# The source made the active and inactive calls. The rule behind the calls is not given here.
# Assays:
# Botrytis cinerea [1] = assay: Antifungal activity against Botryotinia fuckeliana obtained from kiwi fruit isolate assessed as inhibition of spore germ tube growth; type: functional, organism-based
# Botrytis cinerea [2] = assay: Curative antifungal activity against Botryotinia fuckeliana inoculated in strawberry fruit assessed as disease control efficacy at 1 ug AI/ml applied 96 hr post-inoculation relative to control; type: functional
# Botrytis cinerea [3] = assay: Protective antifungal activity against Botryotinia fuckeliana inoculated in fungicide-applied strawberry fruit assessed as disease severity measuring lesion diameter at 1 ug AI/ml applied 48 hr prior inoculation; type: functional
# Botrytis cinerea [4] = assay: Protective antifungal activity against Botryotinia fuckeliana inoculated in fungicide-applied strawberry fruit assessed as disease severity measuring lesion diameter at 50 ug AI/ml applied 96 hr prior-inoculation; type: functional
# Botrytis cinerea [5] = assay: Protective antifungal activity against Botryotinia fuckeliana inoculated in fungicide-applied strawberry fruit assessed as disease control efficacy at 10 ug AI/ml applied 48 hr prior inoculation relative to control; type: functional
# Botrytis cinerea [6] = assay: Protective antifungal activity against Botryotinia fuckeliana inoculated in fungicide-applied strawberry fruit assessed as disease control efficacy at 100 ug AI/ml applied 24 hr prior inoculation relative to control; type: functional
# Botrytis cinerea [7] = assay: Curative antifungal activity against Botryotinia fuckeliana inoculated in strawberry fruit assessed as disease control efficacy at 50 ug AI/ml applied 48 hr post-inoculation relative to control; type: functional
# Botrytis cinerea [8] = assay: Protective antifungal activity against Botryotinia fuckeliana inoculated in fungicide-applied strawberry fruit assessed as disease control efficacy at 10 ug AI/ml applied 96 hr prior-inoculation relative to control; type: functional
# Botrytis cinerea [9] = assay: Protective antifungal activity against Botryotinia fuckeliana inoculated in fungicide-applied strawberry fruit assessed as disease control efficacy at 1 ug AI/ml applied 24 hr prior inoculation relative to control; type: functional
# Botrytis cinerea [10] = assay: Protective antifungal activity against Botryotinia fuckeliana inoculated in fungicide-applied strawberry fruit assessed as disease severity measuring lesion diameter at 100 ug AI/ml applied 24 hr prior inoculation; type: functional
# Botrytis cinerea [11] = assay: Antifungal activity against Botryotinia fuckeliana assessed as inhibition of spore germination at 0.001 to 10 ug/ml after 10 days; type: functional, organism-based
# Botrytis cinerea [12] = assay: Antifungal activity against Botryotinia fuckeliana grown on succinate medium assessed as inhibition of spore germination at 5 ug/ml after 10 days; type: functional, organism-based
# Botrytis cinerea [13] = assay: Curative antifungal activity against Botryotinia fuckeliana inoculated in strawberry fruit assessed as disease control efficacy at 50 ug AI/ml applied 24 hr post-inoculation relative to control; type: functional
# Botrytis cinerea [14] = assay: Protective antifungal activity against Botryotinia fuckeliana inoculated in fungicide-applied strawberry fruit assessed as disease severity measuring lesion diameter at 10 ug AI/ml applied 24 hr prior inoculation; type: functional
# Botrytis cinerea [15] = assay: Curative antifungal activity against Botryotinia fuckeliana inoculated in strawberry fruit assessed as disease control efficacy at 100 ug AI/ml applied 96 hr post-inoculation relative to control; type: functional
# Botrytis cinerea [16] = assay: Antifungal activity against Botryotinia fuckeliana grown on PDA medium assessed as inhibition of mycelial growth at 10 ug/ml after 10 days; type: functional, organism-based
# Botrytis cinerea [17] = assay: Protective antifungal activity against Botryotinia fuckeliana inoculated in fungicide-applied strawberry fruit assessed as disease severity measuring lesion diameter at 10 ug AI/ml applied 96 hr prior-inoculation; type: functional
# Botrytis cinerea [18] = assay: Curative antifungal activity against Botryotinia fuckeliana inoculated in strawberry fruit assessed as disease control efficacy at 1 ug AI/ml applied 48 hr post-inoculation relative to control; type: functional
# Botrytis cinerea [19] = assay: Protective antifungal activity against Botryotinia fuckeliana inoculated in fungicide-applied strawberry fruit assessed as disease control efficacy at 100 ug AI/ml applied 48 hr prior inoculation relative to control; type: functional
# Botrytis cinerea [20] = assay: Protective antifungal activity against Botryotinia fuckeliana inoculated in fungicide-applied strawberry fruit assessed as disease severity measuring lesion diameter at 50 ug AI/ml applied 24 hr prior inoculation; type: functional
# Botrytis cinerea [21] = assay: Curative antifungal activity against Botryotinia fuckeliana inoculated in strawberry fruit assessed as disease control efficacy at 10 ug AI/ml applied 96 hr post-inoculation relative to control; type: functional
# Botrytis cinerea [22] = assay: Antifungal activity against Botryotinia fuckeliana assessed as inhibition of germ tube growth at 0.001 to 10 ug/ml after 10 days; type: functional, organism-based
# Botrytis cinerea [23] = assay: Curative antifungal activity against Botryotinia fuckeliana inoculated in strawberry fruit assessed as disease severity measuring lesion diameter at 100 ug AI/ml applied 96 hr post-inoculation; type: functional
# Botrytis cinerea [24] = assay: Curative antifungal activity against Botryotinia fuckeliana inoculated in strawberry fruit assessed as disease control efficacy at 10 ug AI/ml applied 24 hr post-inoculation relative to control; type: functional
# Botrytis cinerea [25] = assay: Curative antifungal activity against Botryotinia fuckeliana inoculated in strawberry fruit assessed as disease control efficacy at 1 ug AI/ml applied 24 hr post-inoculation relative to control; type: functional
# Botrytis cinerea [26] = assay: Protective antifungal activity against Botryotinia fuckeliana inoculated in fungicide-applied strawberry fruit assessed as disease severity measuring lesion diameter at 100 ug AI/ml applied 48 hr prior inoculation; type: functional
# Botrytis cinerea [27] = assay: Protective antifungal activity against Botryotinia fuckeliana inoculated in fungicide-applied strawberry fruit assessed as disease severity measuring lesion diameter at 1 ug AI/ml applied 24 hr prior inoculation; type: functional
# Botrytis cinerea [28] = assay: Curative antifungal activity against Botryotinia fuckeliana inoculated in strawberry fruit assessed as disease severity measuring lesion diameter at 10 ug AI/ml applied 96 hr post-inoculation; type: functional
# Botrytis cinerea [29] = assay: Protective antifungal activity against Botryotinia fuckeliana inoculated in fungicide-applied strawberry fruit assessed as disease control efficacy at 50 ug AI/ml applied 48 hr prior inoculation relative to control; type: functional
# Botrytis cinerea [30] = assay: Curative antifungal activity against Botryotinia fuckeliana inoculated in strawberry fruit assessed as disease severity measuring lesion diameter at 50 ug AI/ml applied 24 hr post-inoculation; type: functional
# Botrytis cinerea [31] = assay: Curative antifungal activity against Botryotinia fuckeliana inoculated in strawberry fruit assessed as disease severity measuring lesion diameter at 1 ug AI/ml applied 24 hr post-inoculation; type: functional
# Botrytis cinerea [32] = assay: Curative antifungal activity against Botryotinia fuckeliana inoculated in strawberry fruit assessed as disease control efficacy at 50 ug AI/ml applied 96 hr post-inoculation relative to control; type: functional
# Botrytis cinerea [33] = assay: Antifungal activity against Botryotinia fuckeliana grown on water agar assessed as inhibition of spore germination at 1 ug/ml after 10 days; type: functional, organism-based
# Botrytis cinerea [34] = assay: Antifungal activity against Botryotinia fuckeliana obtained from grape isolate assessed as inhibition of spore germ tube growth; type: functional, organism-based
# Botrytis cinerea [35] = assay: Antifungal activity against Botryotinia fuckeliana grown on succinate medium assessed as inhibition of germ tube growth at 5 ug/ml after 10 days; type: functional, organism-based
# Botrytis cinerea [36] = assay: Protective antifungal activity against Botryotinia fuckeliana inoculated in fungicide-applied strawberry fruit assessed as disease severity measuring lesion diameter at 100 ug AI/ml applied 96 hr prior-inoculation; type: functional
# Botrytis cinerea [37] = assay: Antifungal activity against Botryotinia fuckeliana grown on YBA agar assessed as inhibition of spore germination at 1 ug/ml after 10 days; type: functional, organism-based
# Botrytis cinerea [38] = assay: Curative antifungal activity against Botryotinia fuckeliana inoculated in strawberry fruit assessed as disease severity measuring lesion diameter at 100 ug AI/ml applied 48 hr post-inoculation; type: functional
# Botrytis cinerea [39] = assay: Curative antifungal activity against Botryotinia fuckeliana inoculated in strawberry fruit assessed as disease control efficacy at 100 ug AI/ml applied 48 hr post-inoculation relative to control; type: functional
structure (smiles),measurement,setting,value
O=C(NCCc1ncc(C(F)(F)F)cc1Cl)c1ccccc1C(F)(F)F [FLUOPYRAM],EC50,Botrytis cinerea [1],0.1 µg/mL
same,Efficacy,Botrytis cinerea [2],37.2%
same,Activity,Botrytis cinerea [3],8.6 mm
same,Activity,Botrytis cinerea [4],3.9 mm
same,Efficacy,Botrytis cinerea [5],70.8%
same,Efficacy,Botrytis cinerea [6],100%
same,Efficacy,Botrytis cinerea [7],82.9%
same,Efficacy,Botrytis cinerea [8],66.3%
same,Efficacy,Botrytis cinerea [9],66.4%
same,Activity,Botrytis cinerea [10],0 mm
same,growth inhibition (GI),Botrytis cinerea [11],Active
same,growth inhibition (GI),Botrytis cinerea [12],Active
same,Efficacy,Botrytis cinerea [13],77.3%
same,Activity,Botrytis cinerea [14],4.2 mm
same,Efficacy,Botrytis cinerea [15],62.5%
same,growth inhibition (GI),Botrytis cinerea [16],inactive
same,Activity,Botrytis cinerea [17],4.2 mm
same,Efficacy,Botrytis cinerea [18],63.3%
same,Efficacy,Botrytis cinerea [19],95.9%
same,Activity,Botrytis cinerea [20],1.1 mm
same,Efficacy,Botrytis cinerea [21],41.1%
same,growth inhibition (GI),Botrytis cinerea [22],Active
same,Activity,Botrytis cinerea [23],7 mm
same,Efficacy,Botrytis cinerea [24],69.7%
same,Efficacy,Botrytis cinerea [25],53%
same,Activity,Botrytis cinerea [26],1.1 mm
same,Activity,Botrytis cinerea [27],6.3 mm
same,Activity,Botrytis cinerea [28],11.1 mm
same,Efficacy,Botrytis cinerea [29],87.7%
same,Activity,Botrytis cinerea [30],4.2 mm
same,Activity,Botrytis cinerea [31],8.8 mm
same,Efficacy,Botrytis cinerea [32],45.1%
same,growth inhibition (GI),Botrytis cinerea [33],Active
same,EC50,Botrytis cinerea [34],0.13 µg/mL
same,growth inhibition (GI),Botrytis cinerea [35],Active
same,Activity,Botrytis cinerea [36],0.7 mm
same,growth inhibition (GI),Botrytis cinerea [37],Active
same,Activity,Botrytis cinerea [38],1.4 mm
same,Efficacy,Botrytis cinerea [39],92.2%
